In PubChem BioAssay (NCI):
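96-well plates; 48 h exposure; 5 concentrations. Endpoints by linear interpolation between flanking doses. Not reached: highest tested concentration assigned. Here, GI50 denotes the concentration required for 50% inhibition of growth. TGI: concentration producing complete growth inhibition.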

What was measured:
Assay in all cases: inhibition of tumour cell growth, NCI panel, 48 h
CCRF-CEM leukemia = system: CCRF-CEM leukemia
SF-539 CNS = system: SF-539 CNS
A549 NSCLC = system: A549 NSCLC
MALME-3M melanoma = system: MALME-3M melanoma
HCT-116 colon = system: HCT-116 colon
U251 CNS = system: U251 CNS
NCI/ADR-RES ovarian = system: NCI/ADR-RES ovarian
SN12C renal = system: SN12C renal
SF-295 CNS = system: SF-295 CNS
EKVX NSCLC = system: EKVX NSCLC
SR leukemia = system: SR leukemia
UACC-257 melanoma = system: UACC-257 melanoma
LOX IMVI melanoma = system: LOX IMVI melanoma
NCI-H460 lung = system: NCI-H460 lung
SF-268 CNS = system: SF-268 CNS
MOLT-4 leukemia = system: MOLT-4 leukemia
UACC-62 melanoma = system: UACC-62 melanoma
NCI-H226 lung = system: NCI-H226 lung
HOP-62 NSCLC = system: HOP-62 NSCLC
IGROV1 ovarian = system: IGROV1 ovarian
OVCAR-5 ovarian = system: OVCAR-5 ovarian
M14 melanoma = system: M14 melanoma
TK-10 renal = system: TK-10 renal
OVCAR-4 ovarian = system: OVCAR-4 ovarian
HCT-15 colon = system: HCT-15 colon
SK-MEL-2 melanoma = system: SK-MEL-2 melanoma
SW-620 colon = system: SW-620 colon
NCI-H23 lung = system: NCI-H23 lung
OVCAR-8 ovarian = system: OVCAR-8 ovarian
T-47D breast = system: T-47D breast
786-0 renal = system: 786-0 renal
KM12 colon = system: KM12 colon
SNB-19 CNS = system: SNB-19 CNS
PC-3 prostate = system: PC-3 prostate
OVCAR-3 ovarian = system: OVCAR-3 ovarian
SNB-75 CNS = system: SNB-75 CNS
HCC-2998 colon = system: HCC-2998 colon
MDA-MB-435 = system: MDA-MB-435
HOP-92 NSCLC = system: HOP-92 NSCLC
RXF 393 renal = system: RXF 393 renal
MDA-MB-231 breast = system: MDA-MB-231 breast
MCF7 breast = system: MCF7 breast
UO-31 renal = system: UO-31 renal
HT29 colon = system: HT29 colon
NCI-H522 lung = system: NCI-H522 lung
A498 renal = system: A498 renal
SK-OV-3 ovarian = system: SK-OV-3 ovarian
ACHN renal = system: ACHN renal
SK-MEL-28 melanoma = system: SK-MEL-28 melanoma
BT-549 breast = system: BT-549 breast
HS 578T breast = system: HS 578T breast
DU-145 prostate = system: DU-145 prostate
SK-MEL-5 melanoma = system: SK-MEL-5 melanoma
HL-60(TB) leukemia = system: HL-60(TB) leukemia

O=C1c2ccccc2C(=O)c2c1ccc(C(Br)Br)c2Cl
GI50 (CCRF-CEM leukemia): 2.1 µM
TGI (CCRF-CEM leukemia): 8.21 µM
GI50 (SF-539 CNS): 1.99 µM
TGI (SF-539 CNS): 4.61 µM
GI50 (A549 NSCLC): 16.7 µM
TGI (A549 NSCLC): 32.3 µM
GI50 (MALME-3M melanoma): 1.69 µM
TGI (MALME-3M melanoma): 3.38 µM
GI50 (HCT-116 colon): 1.58 µM
TGI (HCT-116 colon): 3.02 µM
GI50 (U251 CNS): 1.75 µM
TGI (U251 CNS): 3.24 µM
GI50 (NCI/ADR-RES ovarian): 3.1 µM
TGI (NCI/ADR-RES ovarian): 14.9 µM
GI50 (SN12C renal): 1.92 µM
TGI (SN12C renal): 3.82 µM
GI50 (SF-295 CNS): 11.7 µM
TGI (SF-295 CNS): 23.9 µM
GI50 (EKVX NSCLC): 4.42 µM
TGI (EKVX NSCLC): 17.8 µM
GI50 (SR leukemia): 1.83 µM
TGI (SR leukemia): 4.33 µM
GI50 (UACC-257 melanoma): 12.1 µM
TGI (UACC-257 melanoma): 24.8 µM
GI50 (LOX IMVI melanoma): 1.59 µM
TGI (LOX IMVI melanoma): 3.08 µM
GI50 (NCI-H460 lung): 2.01 µM
TGI (NCI-H460 lung): 3.85 µM
GI50 (SF-268 CNS): 1.68 µM
TGI (SF-268 CNS): 3.45 µM
GI50 (MOLT-4 leukemia): 2.81 µM
TGI (MOLT-4 leukemia): 9.32 µM
GI50 (UACC-62 melanoma): 4.56 µM
TGI (UACC-62 melanoma): 16.6 µM
GI50 (NCI-H226 lung): 4.49 µM
TGI (NCI-H226 lung): 24.4 µM
GI50 (HOP-62 NSCLC): 2.1 µM
TGI (HOP-62 NSCLC): 4.67 µM
GI50 (IGROV1 ovarian): 1.7 µM
TGI (IGROV1 ovarian): 3.89 µM
GI50 (OVCAR-5 ovarian): 11.1 µM
TGI (OVCAR-5 ovarian): 23.9 µM
GI50 (M14 melanoma): 2.67 µM
TGI (M14 melanoma): 9.06 µM
GI50 (TK-10 renal): 3.91 µM
TGI (TK-10 renal): 12.3 µM
GI50 (OVCAR-4 ovarian): 1.78 µM
TGI (OVCAR-4 ovarian): 4.3 µM
GI50 (HCT-15 colon): 1.69 µM
TGI (HCT-15 colon): 3.4 µM
GI50 (SK-MEL-2 melanoma): 3.27 µM
TGI (SK-MEL-2 melanoma): 12.4 µM
GI50 (SW-620 colon): 1.78 µM
TGI (SW-620 colon): 3.4 µM
GI50 (NCI-H23 lung): 1.91 µM
TGI (NCI-H23 lung): 4.92 µM
GI50 (OVCAR-8 ovarian): 3.16 µM
TGI (OVCAR-8 ovarian): 8.87 µM
GI50 (T-47D breast): 1.76 µM
TGI (T-47D breast): 5.79 µM
GI50 (786-0 renal): 1.71 µM
TGI (786-0 renal): 3.25 µM
GI50 (KM12 colon): 2.04 µM
TGI (KM12 colon): 5.28 µM
GI50 (SNB-19 CNS): 3.55 µM
TGI (SNB-19 CNS): 13.5 µM
GI50 (PC-3 prostate): 2.38 µM
TGI (PC-3 prostate): 6.28 µM
GI50 (OVCAR-3 ovarian): 1.66 µM
TGI (OVCAR-3 ovarian): 3.12 µM
GI50 (SNB-75 CNS): 13.7 µM
TGI (SNB-75 CNS): 26.9 µM
GI50 (HCC-2998 colon): 3.42 µM
TGI (HCC-2998 colon): 12.1 µM
GI50 (MDA-MB-435): 3.03 µM
TGI (MDA-MB-435): 10.9 µM
GI50 (HOP-92 NSCLC): 1.67 µM
TGI (HOP-92 NSCLC): 3.35 µM
GI50 (RXF 393 renal): 2 µM
TGI (RXF 393 renal): 4.79 µM
GI50 (MDA-MB-231 breast): 1.87 µM
TGI (MDA-MB-231 breast): 3.7 µM
GI50 (MCF7 breast): 1.69 µM
TGI (MCF7 breast): 3.86 µM
GI50 (UO-31 renal): 1.73 µM
TGI (UO-31 renal): 3.78 µM
GI50 (HT29 colon): 1.87 µM
TGI (HT29 colon): 3.54 µM
GI50 (NCI-H522 lung): 1.6 µM
TGI (NCI-H522 lung): 3.3 µM
GI50 (A498 renal): 17 µM
TGI (A498 renal): 31.9 µM
GI50 (SK-OV-3 ovarian): 15.1 µM
TGI (SK-OV-3 ovarian): 30 µM
GI50 (ACHN renal): 1.57 µM
TGI (ACHN renal): 3.02 µM
GI50 (SK-MEL-28 melanoma): 11.9 µM
TGI (SK-MEL-28 melanoma): 24.4 µM
GI50 (BT-549 breast): 1.79 µM
TGI (BT-549 breast): 4.61 µM
GI50 (HS 578T breast): 2.81 µM
TGI (HS 578T breast): 9.11 µM
GI50 (DU-145 prostate): 2.07 µM
TGI (DU-145 prostate): 4.7 µM
GI50 (SK-MEL-5 melanoma): 5.84 µM
TGI (SK-MEL-5 melanoma): 18.1 µM
GI50 (HL-60(TB) leukemia): 3.66 µM
TGI (HL-60(TB) leukemia): 11.2 µM
